Type in all cases: in vitro ADME
For one series, the target named is T1, UGT1A4 (Homo sapiens, UniProt P22310).
T1 sequence (P22310 29-534): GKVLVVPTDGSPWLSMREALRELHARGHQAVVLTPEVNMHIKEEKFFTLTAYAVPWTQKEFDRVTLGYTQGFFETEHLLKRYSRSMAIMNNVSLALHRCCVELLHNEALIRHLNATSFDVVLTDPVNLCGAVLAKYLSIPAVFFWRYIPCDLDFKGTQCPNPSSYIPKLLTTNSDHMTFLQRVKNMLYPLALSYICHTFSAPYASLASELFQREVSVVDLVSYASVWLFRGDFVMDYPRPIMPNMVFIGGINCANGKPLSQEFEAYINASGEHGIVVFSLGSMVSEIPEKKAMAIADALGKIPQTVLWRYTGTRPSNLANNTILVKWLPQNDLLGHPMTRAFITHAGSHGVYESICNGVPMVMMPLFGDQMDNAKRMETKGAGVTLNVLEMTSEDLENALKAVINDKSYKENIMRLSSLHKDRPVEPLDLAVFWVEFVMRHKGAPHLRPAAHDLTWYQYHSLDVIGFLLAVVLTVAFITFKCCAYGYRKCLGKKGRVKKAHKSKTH
The experiment in a line: UGT1A4 inhibition in HLM (trifluoperazine N-glucuronidation). The following applies: for inhibitory effect on UGT1A4: HLM, 1, 10 and 100 μM; for IC50: UGT1A4, trifluoperazine N-glucuronide formation in HLM. Also noted: tissue XenoTech LLC; host or cells: pooled human liver microsomes. The method, then: (§1) To assess drug-drug interactions (DDIs) potential caused by ticagrelor and ticagrelor-O-Glu through the inhibition of the major human UGTs enzymes, selective UGT probe substrates were co-incubated with ticagrelor or ticagrelor-O-Glu in HLM. The formation of metabolites, SN-38 glucuronide, chenodeoxycholic acid 24-acyl-β-D-glucuronide, trifluoperazine N-glucuronide, N-Acetyl serotonin glucuronide, mycophenolic acid glucuronide and 3′-azide-3′-deoxythymidine β-D-glucuronide, which could reflect the enzyme activities of UGT1A1, UGT1A3, UGT1A4, UGT1A6, UGT1A9 and UGT2B7, respectively, were quantified using LC-MS/MS. Three different concentrations of ticagrelor or ticagrelor-O-Glu (1, 10 and 100 μM) were added to the incubation system in the presence of selective UGT probe substrates (SN-38, chenodeoxycholic acid, trifluoperazine, N-Acetyl serotonin, mycophenolic acid and 3′-azide-3′-deoxythymidine), respectively. The assays were performed as described above. The control was treated with a vehicle solvent only. A triple determination was performed.
(§2) The percent inhibition relative to the control was calculated to indicate the UGTs or CYPs inhibition. For inhibition exceeding 50% of the control activity, nonlinear regression analysis was used to estimate the IC50 values using the GraphPad Prism 6 (GraphPad Software Inc., CA, United States).

Series [1] concerns the target T2, UGT2B7 (Homo sapiens, UniProt P16662).
T2 sequence (P16662 24-529): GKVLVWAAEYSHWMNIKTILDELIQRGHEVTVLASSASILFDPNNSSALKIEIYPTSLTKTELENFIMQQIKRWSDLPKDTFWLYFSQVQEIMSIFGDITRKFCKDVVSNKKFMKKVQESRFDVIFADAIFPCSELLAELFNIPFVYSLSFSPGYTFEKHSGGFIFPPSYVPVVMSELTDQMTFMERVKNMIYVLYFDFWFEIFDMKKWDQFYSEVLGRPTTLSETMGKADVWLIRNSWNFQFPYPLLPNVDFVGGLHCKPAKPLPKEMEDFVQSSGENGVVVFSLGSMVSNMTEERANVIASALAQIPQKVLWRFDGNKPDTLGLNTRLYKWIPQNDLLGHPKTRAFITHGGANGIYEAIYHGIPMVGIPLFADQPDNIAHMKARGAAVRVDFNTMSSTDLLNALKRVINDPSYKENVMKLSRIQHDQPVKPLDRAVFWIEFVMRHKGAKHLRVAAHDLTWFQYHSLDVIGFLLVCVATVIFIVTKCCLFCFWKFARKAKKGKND
Briefly: UGT2B7 inhibition in HLM (3′-azide-3′-deoxythymidine glucuronidation). Details: tissue XenoTech LLC; host or cells: pooled human liver microsomes. The following applies: for IC50: UGT2B7, 3′-azide-3′-deoxythymidine β-D-glucuronide formation in HLM; for inhibition at 100 µM: human, human liver microsomes (HLM), probe 3′-azide-3′-deoxythymidine, HLM, 100 μM test compound. The method, then: as §1, §2
In general terms: Liver microsomes are vesicles of endoplasmic reticulum, rich in cytochrome P450 enzymes.

In series [2] the target is T2, UGT2B7. Briefly: Ticagrelor glucuronidation by recombinant human UGT2B7. Details: purchased BD Gentest; host or cells: baculovirus-infected insect cells. The note with it: recombinant human UGT2B7, pH 7.4. The method, then: (§3) Ticagrelor glucuronidation was investigated in an in vitro incubation system by using HLM, HIM, and recombinant human UGTs. The incubation system consisted of enzyme sources (HLM, HIM, or human recombinant UGTs), various concentrations of ticagrelor (dissolved in 50% methanol, 1% v/v, 1, 2, 5, 10, 20, 50, 100, 200, 500 μM of final concentration), alamethicin (50 μg/mg protein), 5 mM MgCl2, 100 mM tris-HCL buffer (pH 7.4), and 5 mM UDPGA in a total volume of 100 μl. Alamethicin is a pore-forming polypeptide used to activate UGTs in HLM and HIM ([Fisher et al., 2000]). Preliminary studies were conducted to determine the optimal protein concentrations and incubation times. Linear conditions of ticagrelor-O-Glu formation from ticagrelor, i.e., HLM, 0.2 mg of protein/ml and 60 min, HIM, 0.2 mg of protein/ml and 60 min, and recombinant human UGTs, 0.2 mg of protein/ml and 60 min were selected. The incubation mixture without UDPGA was placed on ice for 15 min to activate UGT by alamethicin. […]
(§4) Kinetic analyses were performed using the mean values of triplicate determinations with either pooled HLM, HIM, or recombinant human UGTs. All data were analyzed by nonlinear regression analysis using the GraphPad Prism 6 (GraphPad Software Inc., CA, United States). […] Intrinsic clearance (CLint) was calculated by dividing Vmax by Km.

In the next series the target is T3, UGT1A7 (Homo sapiens, UniProt Q9HAW7).
T3 construct: purchased BD Gentest; host or cells: baculovirus-infected insect cells
T3 sequence (Q9HAW7 26-530): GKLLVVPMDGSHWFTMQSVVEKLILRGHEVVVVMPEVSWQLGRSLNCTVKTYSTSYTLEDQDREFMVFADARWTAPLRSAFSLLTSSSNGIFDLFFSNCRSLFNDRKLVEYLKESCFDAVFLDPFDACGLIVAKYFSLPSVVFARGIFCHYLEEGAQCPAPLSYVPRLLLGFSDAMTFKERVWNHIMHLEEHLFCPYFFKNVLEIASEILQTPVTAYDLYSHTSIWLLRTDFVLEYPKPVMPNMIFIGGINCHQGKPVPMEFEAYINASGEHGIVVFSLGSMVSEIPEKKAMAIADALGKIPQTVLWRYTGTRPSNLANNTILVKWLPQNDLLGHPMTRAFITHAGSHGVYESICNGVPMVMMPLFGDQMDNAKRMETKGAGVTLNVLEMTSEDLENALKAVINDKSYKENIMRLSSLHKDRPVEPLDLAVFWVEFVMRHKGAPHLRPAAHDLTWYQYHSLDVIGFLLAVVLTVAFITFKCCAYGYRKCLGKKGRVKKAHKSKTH
The experiment in a line: Ticagrelor glucuronidation by recombinant human UGT1A7. The note with it: recombinant human UGT1A7, pH 7.4. The method, then: as §3, §4

From publication PMC8552062, “Contributions of UDP-Glucuronosyltransferases to Human Hepatic and Intestinal Metabolism of Ticagrelor and Inhibition of UGTs and Cytochrome P450 Enzymes by Ticagrelor and its Glucuronidated Metabolite” (Frontiers in Pharmacology, 2021) come the findings set out here.

`CCCSc1nc(N[C@@H]2C[C@H]2c2ccc(F)c(F)c2)c2nnn([C@@H]3C[C@H](OCCO[C@@H]4O[C@H](C(=O)O)[C@@H](O)[C@H](O)[C@H]4O)[C@@H](O)[C@H]3O)c2n1` [Ticagrelor-O-Glu, ticagrelor-O-glucuronide]: on UGT1A4, the “inhibitory effect on UGT1A4” value is given as “no significant inhibitory effects” and the IC50 is above 100 µM. On UGT2B7 [1], this compound gave an IC50 above 100 µM and an inhibition at 100 µM of 30.7%.

In the case of `CCCSc1nc(N[C@@H]2C[C@H]2c2ccc(F)c(F)c2)c2nnn([C@@H]3C[C@H](OCCO)[C@@H](O)[C@H]3O)c2n1` [Ticagrelor], on UGT2B7 [2], the microsomal CLint stood at 0.02 µL/min/mg. In addition, the microsomal CLint on UGT1A7 is 0.07 µL/min/mg. In addition, at UGT1A4, the “inhibitory effect on UGT1A4” value is “No significant inhibitory effect” and the IC50 was above 100 µM. For the same compound, on UGT2B7 [1], the IC50 was above 100 µM and the inhibition at 100 µM amounted to 39%.

One may read the IC50 as the concentration at which inhibition is half-maximal. Broadly, the inhibition is the share of the control response that was lost under treatment. Low readings indicate a response near the control, high ones a response far below the control. One may read the microsomal CLint as the rate of metabolic loss divided by the concentration.
